What was measured:
human α7 nAchR = human α7 nAchR (Homo sapiens (Human), UniProt P36544); assay: Human α7 nicotinic acetylcholine receptor [Ca2+]i assay (PAM, Ca2+ fluorometry); type: cell-based; settings: Flp-In 293 cells expressing human α7 nAchR and human RIC-3; in presence of saturating agonist (mostly PNU-282987, 1 μM)
Male NMRI mice = assay: Place recognition test (Y-maze), reversal of scopolamine-induced amnesia; type: in vivo; settings: scopolamine 1 mg/kg i.p.
Procedure: In Vivo Pharmacology (Place Recognition Test)
Animals: Male NMRI mice (Toxicoop, Hungary)
Substances: Scopolamine was dissolved in saline and administered at 1 mg/kg dose i.p. Test compounds were administered 30 minutes before the acquisition trial (T1) and scopolamine after the acquisition trial at a volume of 0.1 ml/10 g.
Procedure: The task was carried out in a transparent plexiglass Y-maze (each arm has a length of 40 cm, an inner width of 11 cm and a height of 30 cm). Numerous visual cues were placed around the arms and were kept constant during the experiment. The test consisted of two trials (T1 and T2) separated by an intertrial interval of 30 minutes. Mice were placed in the starting arm of the maze at the beginning of each trial. In T1, one of the symmetric arms of the maze was closed (it will be novel in T2) and the animals were allowed to explore the maze for 5 minutes (acquisition phase). In T2, mice had free access to all three arms for 2 minutes (retrieval phase). The time spent with exploration in the novel and familiar arms during T2 was measured. Differences between the exploration times spent in the familiar vs. novel arms of the maze for each group were evaluated by MANOVA, followed by Duncan post hoc test.
Significant differences (^+p<0.05; ^++p<0.01; ^+++p<0.001) were observed between the exploration times spent in the novel vs. familiar arms of the maze.

Sequence of human α7 nAchR (P36544 23-502): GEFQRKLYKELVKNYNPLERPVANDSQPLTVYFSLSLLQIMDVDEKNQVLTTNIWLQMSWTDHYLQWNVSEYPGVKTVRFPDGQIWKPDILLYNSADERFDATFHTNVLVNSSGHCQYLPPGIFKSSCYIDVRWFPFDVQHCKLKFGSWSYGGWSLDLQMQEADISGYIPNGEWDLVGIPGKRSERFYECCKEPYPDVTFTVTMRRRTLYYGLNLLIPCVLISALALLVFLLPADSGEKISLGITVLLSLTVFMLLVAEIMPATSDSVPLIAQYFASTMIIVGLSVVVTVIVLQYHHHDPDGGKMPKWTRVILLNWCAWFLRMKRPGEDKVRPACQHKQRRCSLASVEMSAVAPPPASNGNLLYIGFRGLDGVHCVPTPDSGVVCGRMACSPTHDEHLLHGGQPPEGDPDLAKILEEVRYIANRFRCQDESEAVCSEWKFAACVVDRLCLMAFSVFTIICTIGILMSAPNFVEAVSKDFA

Structure (SMILES)	EC50 (human α7 nAchR)	reversal of the scopolamine-induced amnesia; significance of exploration time novel vs. familiar arm (Male NMRI mice; 1 mg/kg i.p.)	reversal of the scopolamine-induced amnesia; significance of exploration time novel vs. familiar arm (Male NMRI mice; 3 mg/kg i.p.)	reversal of the scopolamine-induced amnesia; significance of exploration time novel vs. familiar arm (Male NMRI mice; 10 mg/kg i.p.)
COc1ccc(C2=NS(=O)(=O)N(C)C(C(=O)Nc3cccc(C)c3)=C2)cc1OC [Example 1, 5-(3,4-dimethoxyphenyl)-2-methyl-N-(3-methylphenyl)-1,1-dioxo-2H-1λ^6,2,6-thiadiazine-3-carboxamide]	430 nM	++ (++p < 0.01)	+++ (+++p < 0.001)	+++ (+++p < 0.001)
Cc1cccc(NC(=O)C2=CC(c3ccc4c(c3)c(C)nn4C)=NS(=O)(=O)N2C)c1 [Example 21]	230 nM	++ (++p < 0.01)	+++ (+++p < 0.001)	++ (++p < 0.01)
CCN1C(C(=O)Nc2cccc(C)c2)=CC(c2ccc(OC)c(OC)c2)=NS1(=O)=O [Example 29]	340 nM	+++ (+++p < 0.001)	++ (++p < 0.01)	+++ (+++p < 0.001)
CCN1C(C(=O)Nc2cccc(C(F)(F)F)n2)=CC(c2ccc(OC)c(OC)c2)=NS1(=O)=O [Example 33]	50 nM	+++ (+++p < 0.001)	++ (++p < 0.01)	++ (++p < 0.01)
CCN1C(C(=O)Nc2cccc(OC)c2)=CC(c2ccc(OC)c(C(F)(F)F)c2)=NS1(=O)=O [Example 37]	45 nM	+++ (+++p < 0.001)	++ (++p < 0.01)	+++ (+++p < 0.001)
COc1ccc(C2=NS(=O)(=O)N(C(C)C)C(C(=O)Nc3cccc(C(F)(F)F)n3)=C2)cc1OC [Example 91]	35 nM	+++ (+++p < 0.001)	+ (+p < 0.05)	+++ (+++p < 0.001)
CCCN1C(C(=O)Nc2cccc(C(F)(F)F)c2)=CC(c2ccc(OC)c(OC)c2)=NS1(=O)=O [Example 94]	340 nM	+++ (+++p < 0.001)	+++ (+++p < 0.001)	+++ (+++p < 0.001)

Reference: patent publication US12194050B2, “Thiadiazine derivatives” (RICHTER GEDEON NYRT., priority 2018, dated 2025)
